Laboratory results: ChEMBL document CHEMBL3885881, “DrugMatrix”

Species on record: Rattus norvegicus
Assay: DrugMatrix - Regimen: Daily Repeat
Type: toxicity, organism-based, Sprague-Dawley
Parameters: regimen Daily Repeat, gender Male, age 6-8 weeks
Settings: in vivo, po, route oral GAVAGE, vehicle 100 % WATER; for ABSOLUTE BASOPHIL / ABSOLUTE EOSINOPHIL / ABSOLUTE LYMPHOCYTE / ABSOLUTE MONOCYTE / ABSOLUTE SEGMENTED NEUTROPHIL / BASOPHIL / EOSINOPHIL / ERYTHROCYTE COUNT / HEMATOCRIT / HEMOGLOBIN / LEUKOCYTE COUNT / LYMPHOCYTE / MEAN CORPUSCULAR HEMOGLOBIN / MEAN CORPUSCULAR HEMOGLOBIN CONCENTRATION / MEAN CORPUSCULAR VOLUME / MONOCYTE / NEUTROPHIL / NUCLEATED RED BLOOD CELLS / PLATELET COUNT: tissue Blood; for ALANINE AMINOTRANSFERASE / ALBUMIN / ALKALINE PHOSPHATASE / ASPARTATE AMINOTRANSFERASE / BLOOD UREA NITROGEN / CARBON DIOXIDE / CHLORIDE / CHOLESTEROL / CREATINE PHOSPHOKINASE / CREATININE / GLUCOSE / LACTATE DEHYDROGENASE / LIPASE / PHOSPHORUS / POTASSIUM / SODIUM / TOTAL BILIRUBIN / TOTAL PROTEIN / URIC ACID: tissue Plasma
[1] = 11 mg/kg, 120 h, dose level Low, time 5 day
[2] = 40 mg/kg, 72 h, dose level High, time 3 day
[3] = 40 mg/kg, 120 h, dose level High, time 5 day

CN(C)C(=O)Oc1cccc([N+](C)(C)C)c1.[Br-] [NEOSTIGMINE BROMIDE]
ABSOLUTE BASOPHIL [1]: 0 CELLS/uL | ABSOLUTE EOSINOPHIL [1]: 28.67 CELLS/uL | ABSOLUTE LYMPHOCYTE [1]: 4930.67 CELLS/uL | ABSOLUTE MONOCYTE [1]: 109.33 CELLS/uL | ABSOLUTE SEGMENTED NEUTROPHIL [1]: 798 CELLS/uL | BASOPHIL [1]: 0% | EOSINOPHIL [1]: 0.33% | ERYTHROCYTE COUNT [1]: 5.49 x10E6/uL | HEMATOCRIT [1]: 34.3% | HEMOGLOBIN [1]: 13.23 G/DL | LEUKOCYTE COUNT [1]: 5.87 x10E3/uL | LYMPHOCYTE [1]: 83% | MEAN CORPUSCULAR HEMOGLOBIN [1]: 24.1 pg | MEAN CORPUSCULAR HEMOGLOBIN CONCENTRATION [1]: 38.57 G/DL | MEAN CORPUSCULAR VOLUME [1]: 62.5 fL | MONOCYTE [1]: 1.67% | NEUTROPHIL [1]: 15% | NUCLEATED RED BLOOD CELLS [1]: 0 /100WBC | PLATELET COUNT [1]: 970 x10E3/uL | ALANINE AMINOTRANSFERASE [1]: 54 u/L | ALBUMIN [1]: 4 G/DL | ALKALINE PHOSPHATASE [1]: 382.33 u/L | ASPARTATE AMINOTRANSFERASE [1]: 83 u/L | BLOOD UREA NITROGEN [1]: 14 mg/dL | CARBON DIOXIDE [1]: 32.33 mmol/L | CHLORIDE [1]: 99.33 MEQ/L | CHOLESTEROL [1]: 67.33 mg/dL | CREATINE PHOSPHOKINASE [1]: 225.33 u/L | CREATININE [1]: 0.14 mg/dL | GLUCOSE [1]: 155.33 mg/dL | LACTATE DEHYDROGENASE [1]: 116 u/L | LIPASE [1]: 9.33 u/L | PHOSPHORUS [1]: 11.53 mg/dL | POTASSIUM [1]: 5.88 MEQ/L | SODIUM [1]: 144.8 MEQ/L | TOTAL BILIRUBIN [1]: 0.17 mg/dL | TOTAL PROTEIN [1]: 5.8 G/DL | URIC ACID [1]: 0.8 mg/dL | ABSOLUTE BASOPHIL [2]: 0 CELLS/uL | ABSOLUTE EOSINOPHIL [2]: 29.33 CELLS/uL | ABSOLUTE LYMPHOCYTE [2]: 8073 CELLS/uL | ABSOLUTE MONOCYTE [2]: 28.67 CELLS/uL | ABSOLUTE SEGMENTED NEUTROPHIL [2]: 702.33 CELLS/uL | BASOPHIL [2]: 0% | EOSINOPHIL [2]: 0.33% | ERYTHROCYTE COUNT [2]: 5.28 x10E6/uL | HEMATOCRIT [2]: 32.2% | HEMOGLOBIN [2]: 12.53 G/DL | LEUKOCYTE COUNT [2]: 8.83 x10E3/uL | LYMPHOCYTE [2]: 91.33% | MEAN CORPUSCULAR HEMOGLOBIN [2]: 23.7 pg | MEAN CORPUSCULAR HEMOGLOBIN CONCENTRATION [2]: 38.93 G/DL | MEAN CORPUSCULAR VOLUME [2]: 60.93 fL | MONOCYTE [2]: 0.33% | NEUTROPHIL [2]: 8% | NUCLEATED RED BLOOD CELLS [2]: 0 /100WBC | PLATELET COUNT [2]: 857.33 x10E3/uL | ALANINE AMINOTRANSFERASE [2]: 53.67 u/L | ALBUMIN [2]: 3.97 G/DL | ALKALINE PHOSPHATASE [2]: 316.33 u/L | ASPARTATE AMINOTRANSFERASE [2]: 90.33 u/L | BLOOD UREA NITROGEN [2]: 13.33 mg/dL | CARBON DIOXIDE [2]: 31.67 mmol/L | CHLORIDE [2]: 100.67 MEQ/L | CHOLESTEROL [2]: 85 mg/dL | CREATINE PHOSPHOKINASE [2]: 289 u/L | CREATININE [2]: 0.15 mg/dL | GLUCOSE [2]: 135.33 mg/dL | LACTATE DEHYDROGENASE [2]: 137.33 u/L | LIPASE [2]: 9 u/L | PHOSPHORUS [2]: 11.43 mg/dL | POTASSIUM [2]: 6.3 MEQ/L | SODIUM [2]: 143.1 MEQ/L | TOTAL BILIRUBIN [2]: 0.2 mg/dL | TOTAL PROTEIN [2]: 6.03 G/DL | URIC ACID [2]: 0.83 mg/dL | ABSOLUTE BASOPHIL [3]: 0 CELLS/uL | ABSOLUTE EOSINOPHIL [3]: 26.33 CELLS/uL | ABSOLUTE LYMPHOCYTE [3]: 8117.33 CELLS/uL | ABSOLUTE MONOCYTE [3]: 169.67 CELLS/uL | ABSOLUTE SEGMENTED NEUTROPHIL [3]: 1053.33 CELLS/uL | BASOPHIL [3]: 0% | EOSINOPHIL [3]: 0.33% | ERYTHROCYTE COUNT [3]: 5.39 x10E6/uL | HEMATOCRIT [3]: 33.9% | HEMOGLOBIN [3]: 13 G/DL | LEUKOCYTE COUNT [3]: 9.37 x10E3/uL | LYMPHOCYTE [3]: 87% | MEAN CORPUSCULAR HEMOGLOBIN [3]: 24.13 pg | MEAN CORPUSCULAR HEMOGLOBIN CONCENTRATION [3]: 38.37 G/DL | MEAN CORPUSCULAR VOLUME [3]: 62.93 fL | MONOCYTE [3]: 1.67% | NEUTROPHIL [3]: 11% | NUCLEATED RED BLOOD CELLS [3]: 0.33 /100WBC | PLATELET COUNT [3]: 1139.67 x10E3/uL | ALANINE AMINOTRANSFERASE [3]: 52.33 u/L | ALBUMIN [3]: 3.97 G/DL | ALKALINE PHOSPHATASE [3]: 386 u/L | ASPARTATE AMINOTRANSFERASE [3]: 89.67 u/L | BLOOD UREA NITROGEN [3]: 15.33 mg/dL | CARBON DIOXIDE [3]: 32.33 mmol/L | CHLORIDE [3]: 102.33 MEQ/L | CHOLESTEROL [3]: 79.33 mg/dL | CREATINE PHOSPHOKINASE [3]: 258 u/L | CREATININE [3]: 0.16 mg/dL | GLUCOSE [3]: 148.67 mg/dL | LACTATE DEHYDROGENASE [3]: 117.33 u/L | LIPASE [3]: 9.33 u/L | PHOSPHORUS [3]: 11.17 mg/dL | POTASSIUM [3]: 6.13 MEQ/L | SODIUM [3]: 148.3 MEQ/L | TOTAL BILIRUBIN [3]: 0.2 mg/dL | TOTAL PROTEIN [3]: 5.87 G/DL | URIC ACID [3]: 0.43 mg/dL
